Laboratory results as given in ChEMBL document CHEMBL3045439, “Isoforms of the heteropteran Nezara viridula ecdysone receptor: protein characterisation, RH5992 insecticide binding and homology modelling” (Pest Manag Sci, 2011).

Assays:
Type in all cases: protein-complex assay
[1] = target: T1, Ecdysone receptor (Plodia interpunctella, UniProt Q6IVK1+Q6RVD3); assay: Binding affinity to Plodia interpunctella (Indian meal moth ) EcR
T1 sequence (Q6RVD3 whole entry): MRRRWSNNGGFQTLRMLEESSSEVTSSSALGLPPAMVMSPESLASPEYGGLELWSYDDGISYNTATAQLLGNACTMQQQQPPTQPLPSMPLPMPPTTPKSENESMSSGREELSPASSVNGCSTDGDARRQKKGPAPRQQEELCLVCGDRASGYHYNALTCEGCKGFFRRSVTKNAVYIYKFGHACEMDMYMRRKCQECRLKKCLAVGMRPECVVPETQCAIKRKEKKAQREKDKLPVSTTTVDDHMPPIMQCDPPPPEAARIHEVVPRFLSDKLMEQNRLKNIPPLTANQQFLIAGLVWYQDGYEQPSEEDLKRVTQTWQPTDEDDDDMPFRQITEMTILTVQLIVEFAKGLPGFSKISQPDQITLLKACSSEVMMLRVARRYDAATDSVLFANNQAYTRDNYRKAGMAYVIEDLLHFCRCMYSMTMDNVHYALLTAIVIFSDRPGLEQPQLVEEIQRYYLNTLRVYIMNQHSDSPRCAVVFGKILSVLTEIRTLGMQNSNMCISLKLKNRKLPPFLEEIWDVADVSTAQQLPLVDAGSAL
T1 sequence (Q6IVK1 whole entry): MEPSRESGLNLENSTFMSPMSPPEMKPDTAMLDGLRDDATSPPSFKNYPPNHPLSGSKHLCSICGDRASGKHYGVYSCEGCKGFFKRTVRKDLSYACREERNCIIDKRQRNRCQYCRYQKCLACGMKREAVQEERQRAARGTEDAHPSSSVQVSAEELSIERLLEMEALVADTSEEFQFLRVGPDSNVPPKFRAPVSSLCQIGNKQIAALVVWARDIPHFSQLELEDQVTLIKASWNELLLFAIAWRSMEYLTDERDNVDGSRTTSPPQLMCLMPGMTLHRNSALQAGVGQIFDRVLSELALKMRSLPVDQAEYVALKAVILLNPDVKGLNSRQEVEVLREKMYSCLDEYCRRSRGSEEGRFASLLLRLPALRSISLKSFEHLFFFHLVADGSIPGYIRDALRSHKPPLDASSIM

[2] = target: T2, Ecdysone receptor (Heliothis virescens, UniProt O18473+Q7SIF6); assay: Binding affinity to Heliothis virescens (tobacco budworm) EcR
T2 sequence (O18473 whole entry): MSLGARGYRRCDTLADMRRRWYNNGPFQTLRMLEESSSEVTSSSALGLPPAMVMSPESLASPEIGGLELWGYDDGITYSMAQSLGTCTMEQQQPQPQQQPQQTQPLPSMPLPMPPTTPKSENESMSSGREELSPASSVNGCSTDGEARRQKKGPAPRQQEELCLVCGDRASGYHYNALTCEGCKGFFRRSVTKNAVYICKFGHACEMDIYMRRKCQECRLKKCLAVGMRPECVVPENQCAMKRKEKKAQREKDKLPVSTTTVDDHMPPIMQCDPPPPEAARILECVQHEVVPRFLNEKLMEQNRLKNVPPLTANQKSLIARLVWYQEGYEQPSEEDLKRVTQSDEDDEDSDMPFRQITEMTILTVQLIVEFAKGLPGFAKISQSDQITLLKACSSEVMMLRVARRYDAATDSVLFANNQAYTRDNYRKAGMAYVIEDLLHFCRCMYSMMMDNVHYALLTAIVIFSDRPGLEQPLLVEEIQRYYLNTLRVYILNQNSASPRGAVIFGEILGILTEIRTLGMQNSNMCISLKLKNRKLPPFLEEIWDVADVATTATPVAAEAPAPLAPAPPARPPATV
T2 sequence (Q7SIF6 whole entry): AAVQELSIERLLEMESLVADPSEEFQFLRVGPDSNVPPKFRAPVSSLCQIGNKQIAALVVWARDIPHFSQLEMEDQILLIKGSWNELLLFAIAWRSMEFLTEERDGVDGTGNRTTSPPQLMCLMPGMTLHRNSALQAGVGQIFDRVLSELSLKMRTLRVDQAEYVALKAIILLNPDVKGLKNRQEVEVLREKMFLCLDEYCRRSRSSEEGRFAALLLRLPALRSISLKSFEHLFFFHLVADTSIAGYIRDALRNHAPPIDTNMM

[3] = target: T3, Ecdysone receptor (Anthonomus grandis, UniProt B8RG26+Q4W6C8); assay: Binding affinity to Anthonomus grandis ecdysone receptor (EcR)
T3 sequence (B8RG26 whole entry): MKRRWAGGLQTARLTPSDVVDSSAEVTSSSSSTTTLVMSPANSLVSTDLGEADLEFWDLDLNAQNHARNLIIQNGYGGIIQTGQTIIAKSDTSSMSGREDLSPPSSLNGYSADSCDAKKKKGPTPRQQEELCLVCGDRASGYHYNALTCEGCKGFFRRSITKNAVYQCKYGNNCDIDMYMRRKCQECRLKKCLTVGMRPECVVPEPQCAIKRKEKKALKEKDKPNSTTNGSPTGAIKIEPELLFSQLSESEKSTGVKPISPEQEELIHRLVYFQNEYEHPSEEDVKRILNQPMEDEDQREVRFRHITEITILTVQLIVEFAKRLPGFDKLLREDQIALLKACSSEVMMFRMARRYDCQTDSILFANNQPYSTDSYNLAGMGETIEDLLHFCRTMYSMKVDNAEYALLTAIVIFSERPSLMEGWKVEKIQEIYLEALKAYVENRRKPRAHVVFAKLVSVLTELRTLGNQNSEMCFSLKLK
T3 sequence (Q4W6C8 whole entry): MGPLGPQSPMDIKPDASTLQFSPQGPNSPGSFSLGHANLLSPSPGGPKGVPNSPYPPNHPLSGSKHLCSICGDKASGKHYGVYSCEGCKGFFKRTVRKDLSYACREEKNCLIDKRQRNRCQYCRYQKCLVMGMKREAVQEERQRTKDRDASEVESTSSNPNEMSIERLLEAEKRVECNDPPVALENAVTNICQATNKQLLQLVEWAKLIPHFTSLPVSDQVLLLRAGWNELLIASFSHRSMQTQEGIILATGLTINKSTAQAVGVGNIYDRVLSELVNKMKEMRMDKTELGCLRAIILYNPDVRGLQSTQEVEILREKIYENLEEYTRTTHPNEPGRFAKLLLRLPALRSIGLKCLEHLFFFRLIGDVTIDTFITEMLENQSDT

Work on `CCc1ccc(C(=O)NN(C(=O)c2cc(C)cc(C)c2)C(C)(C)C)cc1` [TEBUFENOZIDE] yielded a Ki [1] of 3.16 nM, a Ki [2] of 3.16 nM and a Ki [3] of 12600 nM.
